Laboratory results reported in patent US12433876B2, “Septin inhibitors for treatment of cancers” (UNIVERSITY OF ROCHESTER, priority 2019, dated 2025).

Tests used:
[1] = tested on: endometrial (ECC-1 and KLE) and ovarian (HCH-1, OVCAR-3, and SKOV-3) cancer cell lines; test: MTS cell viability, gynecologic cancer cell line panel; assay type: cell-based; details: for cytotoxic / anti-proliferative activity (FIG. 2A): fixed concentration 100 μM, 24 hours; for proliferation in multiple endometrial and ovarian cancer cells: at considerably lower doses than FCF
Protocol: Cell lines, Culture, and Reagents. Cells were maintained in either DMEM (SKOV-3, KLE, OVCAR-3, OVCAR8-C5 and IGROV-1) or RPMI-1640 (ECC-1 and HCH-1), supplemented with 10% fetal calf serum (or 20% for OVCAR-3), penicillin (100 units/mL), and streptomycin (100 μg/mL) at 37° C. with 5% CO2 in a humidified incubator. Antibodies were purchased from Abcam (septin-2; ab179436) and Cell Signaling Technology; ERK (9102), p-ERK (4370), -actin (3700), u-Tubulin (2144), EGFR (4267) and HER2 (4290). FCF was purchased from Abcam. All other chemicals were from Sigma Aldrich. Synthesis of Derivaties. […] The reaction was monitored using thin-layer chromatography plates with DCM-MeOH or pure ethyl acetate as eluent. Spots were monitored in a UV chamber. The reaction mixture, upon completion of the reaction, was poured into wet ice mixture and triturated, then the separated solid was filtered by vacuum. The product was washed with hexane, followed by diethyl ether, and was dried under vacuum. The compounds were characterized by spectrophotometric techniques. Quantitative Real-Time PCR. The indicated cell lines were transfected with siRNA targeting septin-2 or non-targeting control siRNA (Santa Cruz Biotechnology: sc-37007 or sc-40936) using Lipofectamine 3000 (Invitrogen). Tri reagent and Direct-zol kit (Zymo Research) were used to lyse and isolate total RNA. Reverse transcription was performed using iScript cDNA synthesis kit (BioRad), both following the manufacturer's recommendations. Quantitative real-time PCR was conducted using QuantStudio 12 K Flex Real-Time PCR System (ABI) and the Taqman Gene Expression Assay (ABI) consisting of the FAM-labeled probes as follows: SEPT2 (Hs01565417_ml); WFDC2 (Hs00899484_ml); TBP (Hs00427620_ml) or B2M (Hs00187842_ml), which was used as reference for normalization. Cell Viability, Proliferation and Apoptosis Assay. Cell viability, proliferation, and cellular apoptosis were measured using the MTS (Promega), BrdU cell proliferation (Cell Signaling Technology), and Caspase-Glo 3/7 apoptosis detection (Promega) assays, following the respective manufacturer's recommendations with suitable modification. Enzyme-Linked Immunosorbent Assay (ELISA) and Immunoblotting. Cells were maintained overnight in the culture media described above. […] Following the treatment, cell lysates and supernatants were collected and subjected to HE4 assay (Human HE4 Quantikine ELISA Kit, R&D Systems). The amount of HE4 in supernatant was normalized to the protein concentration of matching cell lysate. The levels of HER2 were determined by Human Total ErbB2/Her2 DuoSet IC ELISA (R&D systems. Wester blot analysis was conducted using the protocol previously published (see Kim, K. K. et al. Tetrathiomolybdate inhibits mitochondrial complex IV and mediates degradation of hypoxia-inducible factor-1alpha in cancer cells. Sci. Rep. 5, 14296, 2015). Data Acquisition and Statistical Analysis. Gene expression profiling of septins, comparing microdissected normal ovarian stroma (N=8) against that of tumor stroma samples (N=31) from high grade serous ovarian cancer patients, was obtained from Mixed Ovarian Cancer (CAFs)-Wong-77-u133p2 data-set through ‘R2: Genomics Analysis and Visualization Platform (http://r2/am/n1). Mean values with SD were plotted and compared using Student t-test (two tail, unpaired heteroscedastic t-test, significant difference when p<0.01). The prognostic assessment of septin-2 amongst different cancers or septins in endometrial cancer was conducted using TCGA data acquired through Human Protein Atlas (http://www.proteinatlas.org) (see Uhlen, M. et al. Towards a knowledge-based Human Protein Atlas. Nat. Biotechnol. 28, 1248-1250, 2010). Survival curves between septin high and low population and their statistical significance were analyzed using GraphPad Prism software (Mantel-Cox test). […] Structural Modification of FCF. […]

HE4 = HE4 ELISA, secreted and intracellular levels; assay type: cell-based, human; details: ECC-1, 5 hours
Protocol: Cell lines, Culture, and Reagents. Cells were maintained in either DMEM (SKOV-3, KLE, OVCAR-3, OVCAR8-C5 and IGROV-1) or RPMI-1640 (ECC-1 and HCH-1), supplemented with 10% fetal calf serum (or 20% for OVCAR-3), penicillin (100 units/mL), and streptomycin (100 μg/mL) at 37° C. with 5% CO2 in a humidified incubator. Antibodies were purchased from Abcam (septin-2; ab179436) and Cell Signaling Technology; ERK (9102), p-ERK (4370), -actin (3700), u-Tubulin (2144), EGFR (4267) and HER2 (4290). FCF was purchased from Abcam. All other chemicals were from Sigma Aldrich. Synthesis of Derivaties. […] The reaction was monitored using thin-layer chromatography plates with DCM-MeOH or pure ethyl acetate as eluent. Spots were monitored in a UV chamber. The reaction mixture, upon completion of the reaction, was poured into wet ice mixture and triturated, then the separated solid was filtered by vacuum. The product was washed with hexane, followed by diethyl ether, and was dried under vacuum. The compounds were characterized by spectrophotometric techniques. Quantitative Real-Time PCR. The indicated cell lines were transfected with siRNA targeting septin-2 or non-targeting control siRNA (Santa Cruz Biotechnology: sc-37007 or sc-40936) using Lipofectamine 3000 (Invitrogen). Tri reagent and Direct-zol kit (Zymo Research) were used to lyse and isolate total RNA. Reverse transcription was performed using iScript cDNA synthesis kit (BioRad), both following the manufacturer's recommendations. Quantitative real-time PCR was conducted using QuantStudio 12 K Flex Real-Time PCR System (ABI) and the Taqman Gene Expression Assay (ABI) consisting of the FAM-labeled probes as follows: SEPT2 (Hs01565417_ml); WFDC2 (Hs00899484_ml); TBP (Hs00427620_ml) or B2M (Hs00187842_ml), which was used as reference for normalization. Cell Viability, Proliferation and Apoptosis Assay. Cell viability, proliferation, and cellular apoptosis were measured using the MTS (Promega), BrdU cell proliferation (Cell Signaling Technology), and Caspase-Glo 3/7 apoptosis detection (Promega) assays, following the respective manufacturer's recommendations with suitable modification. Enzyme-Linked Immunosorbent Assay (ELISA) and Immunoblotting. Cells were maintained overnight in the culture media described above. […] Following the treatment, cell lysates and supernatants were collected and subjected to HE4 assay (Human HE4 Quantikine ELISA Kit, R&D Systems). The amount of HE4 in supernatant was normalized to the protein concentration of matching cell lysate. The levels of HER2 were determined by Human Total ErbB2/Her2 DuoSet IC ELISA (R&D systems. Wester blot analysis was conducted using the protocol previously published (see Kim, K. K. et al. Tetrathiomolybdate inhibits mitochondrial complex IV and mediates degradation of hypoxia-inducible factor-1alpha in cancer cells. Sci. Rep. 5, 14296, 2015). Data Acquisition and Statistical Analysis. Gene expression profiling of septins, comparing microdissected normal ovarian stroma (N=8) against that of tumor stroma samples (N=31) from high grade serous ovarian cancer patients, was obtained from Mixed Ovarian Cancer (CAFs)-Wong-77-u133p2 data-set through ‘R2: Genomics Analysis and Visualization Platform (http://r2/am/n1). […] Survival curves between septin high and low population and their statistical significance were analyzed using GraphPad Prism software (Mantel-Cox test). […]

[2] = tested on: JIMT-1 breast cancer cells; test: RNA-Seq whole transcriptome analysis, JIMT-1; assay type: cell-based, human; details: 10 nM Afatinib
HCH-1 cells = test: MTS cell viability, HCH-1; assay type: cell-based; details: HCH-1, 72 hours, compared with UR214-9
Protocol: (§1) Cell lines, Culture, and Reagents. Cells were maintained in either DMEM (SKOV-3, KLE, OVCAR-3, OVCAR8-C5 and IGROV-1) or RPMI-1640 (ECC-1 and HCH-1), supplemented with 10% fetal calf serum (or 20% for OVCAR-3), penicillin (100 units/mL), and streptomycin (100 μg/mL) at 37° C. with 5% CO2 in a humidified incubator. Antibodies were purchased from Abcam (septin-2; ab179436) and Cell Signaling Technology; ERK (9102), p-ERK (4370), -actin (3700), u-Tubulin (2144), EGFR (4267) and HER2 (4290). FCF was purchased from Abcam. All other chemicals were from Sigma Aldrich. Synthesis of Derivaties. […] The reaction was monitored using thin-layer chromatography plates with DCM-MeOH or pure ethyl acetate as eluent. Spots were monitored in a UV chamber. […] Quantitative Real-Time PCR. […] Quantitative real-time PCR was conducted using QuantStudio 12 K Flex Real-Time PCR System (ABI) and the Taqman Gene Expression Assay (ABI) consisting of the FAM-labeled probes as follows: SEPT2 (Hs01565417_ml); WFDC2 (Hs00899484_ml); TBP (Hs00427620_ml) or B2M (Hs00187842_ml), which was used as reference for normalization. […] Cell viability, proliferation, and cellular apoptosis were measured using the MTS (Promega), BrdU cell proliferation (Cell Signaling Technology), and Caspase-Glo 3/7 apoptosis detection (Promega) assays, following the respective manufacturer's recommendations with suitable modification. […]

ECC-1 cells [3] = test: MTS cell viability, ECC-1; assay type: cell-based; details: ECC-1, 48 hours, MTS (FIG. 2B)
Protocol: (§2) Cell lines, Culture, and Reagents. Cells were maintained in either DMEM (SKOV-3, KLE, OVCAR-3, OVCAR8-C5 and IGROV-1) or RPMI-1640 (ECC-1 and HCH-1), supplemented with 10% fetal calf serum (or 20% for OVCAR-3), penicillin (100 units/mL), and streptomycin (100 μg/mL) at 37° C. with 5% CO2 in a humidified incubator. Antibodies were purchased from Abcam (septin-2; ab179436) and Cell Signaling Technology; ERK (9102), p-ERK (4370), -actin (3700), u-Tubulin (2144), EGFR (4267) and HER2 (4290). FCF was purchased from Abcam. All other chemicals were from Sigma Aldrich. Synthesis of Derivaties. […] The reaction was monitored using thin-layer chromatography plates with DCM-MeOH or pure ethyl acetate as eluent. Spots were monitored in a UV chamber. The reaction mixture, upon completion of the reaction, was poured into wet ice mixture and triturated, then the separated solid was filtered by vacuum. The product was washed with hexane, followed by diethyl ether, and was dried under vacuum. The compounds were characterized by spectrophotometric techniques. Quantitative Real-Time PCR. The indicated cell lines were transfected with siRNA targeting septin-2 or non-targeting control siRNA (Santa Cruz Biotechnology: sc-37007 or sc-40936) using Lipofectamine 3000 (Invitrogen). […] Quantitative real-time PCR was conducted using QuantStudio 12 K Flex Real-Time PCR System (ABI) and the Taqman Gene Expression Assay (ABI) consisting of the FAM-labeled probes as follows: SEPT2 (Hs01565417_ml); WFDC2 (Hs00899484_ml); TBP (Hs00427620_ml) or B2M (Hs00187842_ml), which was used as reference for normalization. […] Cell viability, proliferation, and cellular apoptosis were measured using the MTS (Promega), BrdU cell proliferation (Cell Signaling Technology), and Caspase-Glo 3/7 apoptosis detection (Promega) assays, following the respective manufacturer's recommendations with suitable modification. […] Survival curves between septin high and low population and their statistical significance were analyzed using GraphPad Prism software (Mantel-Cox test). […]

ECC-1 cells [4] = test: BrdU cell proliferation assay; assay type: cell-based; details: ECC-1, 48 hours, BrdU, lower dose ranges
Protocol: as §2

ECC-1 cells [5] = test: Caspase-3/7 activity apoptosis assay; assay type: cell-based; details: ECC-1, 33 μM, 48 hours
Protocol: as §1

HER2 = test: Western blot of HER2 expression in ECC-1 and HCH-1 cells; assay type: cell-based; details: UR214-7 33 μM, UR214-9 33 μM, FCF 300 μM, 24 hours
Protocol: as §2

EGFR = test: Western blot of EGFR expression; assay type: cell-based; details: UR214-7 33 μM, UR214-9 33 μM; 24 hours
Protocol: as §1

SMILES: O=C(Nc1ccc(-c2ncccn2)cc1)Nc1ccnc(Cl)c1 [UR214-4]
- cytotoxic / anti-proliferative activity (FIG. 2A) ([1]; MTS): not tolerated

SMILES: O=C(Nc1ccnc(Cl)c1)Nc1cc(SC(F)(F)F)ccc1Cl [UR214-1]
- proliferation in multiple endometrial and ovarian cancer cells [1]: blocked proliferation
- cytotoxic / anti-proliferative activity (FIG. 2A) ([1]; MTS): very potent cytotoxic activity
- HE4 secretion (HE4): reduced HE4 secretion

SMILES: CN(C)C/C=C/C(=O)Nc1cc2c(Nc3ccc(F)c(Cl)c3)ncnc2cc1O[C@H]1CCOC1 [Afatinib]
- dysregulated genes, down ([2]; 1 μM UR214-9): 523
- dysregulated genes, up ([2]; 1 μM UR214-9): 713
- dysregulated (differentially expressed) genes versus control ([2]; 1 μM UR214-9, adjusted p-value <0.05): 1236 genes

SMILES: O=C(Nc1cccc(OCc2ccccc2)c1)Nc1ccnc(Cl)c1 [UR214-2]
- cytotoxic / anti-proliferative activity (FIG. 2A) ([1]; MTS): not tolerated

SMILES: O=C(Nc1ccc(-n2cccc2)cc1)Nc1ccnc(Cl)c1 [UR214-3]
- cytotoxic / anti-proliferative activity (FIG. 2A) ([1]; MTS): not tolerated

SMILES: O=C(Nc1cnc(Cl)nc1)Nc1cc(SC(F)(F)F)ccc1Cl [UR214-6]
- cytotoxic / anti-proliferative activity (FIG. 2A) ([1]; MTS): lack of activity

SMILES: O=C(Nc1ccnc(Br)c1)Nc1cccc(C(F)(F)F)c1F [UR214-11]
- viability of tumor cells, dose-dependent (FIG. 2E) ([1]; 72 hours, MTS): did not lose activity

SMILES: O=C(Nc1ccnc(Cl)c1)Nc1cccc(SC(F)(F)F)c1F [UR214-7]
- proliferation in multiple endometrial and ovarian cancer cells [1]: blocked proliferation
- viability of tumor cells, dose-dependent (FIG. 2E) (HCH-1 cells): superior efficacy
- concentration inhibiting viability (ECC-1 cells [3]): ≥ 11 µM
- proliferation (ECC-1 cells [4]): reduce proliferation
- apoptosis (caspase-3/7 activity) (ECC-1 cells [5]): caused apoptosis
- HER2 expression (HER2): inhibition of HER2 expression
- EGFR expression (EGFR): did not have an effect
- HE4 secretion (HE4): reduced HE4 secretion
